Assay results published in patent publication EP0490450A1, “Heterocyclic carboxylic esters, methods for their preparation and their use for the preparation of gastrointestinal medicines” (YAMANOUCHI EUROPE B.V., priority 1990, dated 1992).

Test system: Helicobacter pylori
Experiment: Paper disc inhibition assay on blood agar plates (inhibition zone)
Assay type: cell-based
Description: The test organisms used in the inhibition assay were fresh isolates of Helicobacter pylori from patients with duodenal ulcer or non-ulcer dyspepsia, except strain NCTC 11637 which originates from a deposit freely available to the public. NCTC 11637 is a metronidazole resistant strain. All strains were stored frozen. For each inhibition assay fresh strains were thawed in a waterbath at 37°C. Helicobacter pylori strains were incubated with shaking (150 rpm) for 48 hours in 10 ml brain heart infusion […] containing 7% fetal calf serum at 37°C under an atmosphere of 10% CO₂, 5% O₂ and 85% N₂. After washing with phosphate buffered saline and centrifugation the pellet was resuspended and diluted until a density of 10-20 nephelometric turbidity units was achieved and subsequently smeared on blood agar plates. A paper disc with a diameter of 7 mm was placed in the centre of the plate. The test compounds were dissolved in dimethylsulfoxide (DMSO) and 20 µl of these solutions were applied to the disc. After three days of culturing at 37°C under microaerophilic conditions the inhibition zone was measured in mm.
Table I. In vitro activity of the compounds according to the invention on Helicobacter pylori. Inhibition zones are given in mm, 7 mm means no activity.
Compound GBR 24156, an ester of penicillin V and metronidazole has, in a concentration of 1.7 µg/ml, been compared with the combination of single substances penicillin V and metronidazole, both in a concentration of 0.85 µg/ml.
Table II. In vitro activity of GBR 24156 compared to the activity of penicillin V and metronidazole on Helicobacter pylori. Inhibition zones are given in mm; 7 mm means no activity.

[1] = Helicobacter pylori, 72 h, H. pylori strain A85, concentration 50 µg/ml, 7 mm means no activity
[2] = Helicobacter pylori, 72 h, H. pylori strain C85, concentration 50 µg/ml, 7 mm means no activity
[3] = Helicobacter pylori, 72 h, H. pylori strain D9, concentration 50 µg/ml (20 µl on 7 mm disc), 7 mm means no activity
[4] = Helicobacter pylori, 72 h, H. pylori strain D20, concentration 50 µg/ml, 7 mm means no activity
[5] = Helicobacter pylori, NCTC11637, 72 h, H. pylori strain NCTC 11637 (metronidazole resistant), concentration 50 µg/ml, 7 mm means no activity
[6] = Helicobacter pylori, 72 h, H. pylori strain A85, concentration 20 µg/ml, 7 mm means no activity
[7] = Helicobacter pylori, 72 h, H. pylori strain B104, concentration 20 µg/ml, 7 mm means no activity
[8] = Helicobacter pylori, 72 h, H. pylori strain C85, concentration 20 µg/ml, 7 mm means no activity
[9] = Helicobacter pylori, 72 h, H. pylori strain D9, concentration 20 µg/ml (20 µl on 7 mm disc), 7 mm means no activity
[10] = Helicobacter pylori, 72 h, H. pylori strain D20, concentration 20 µg/ml, 7 mm means no activity
[11] = Helicobacter pylori, 72 h, H. pylori strain D29, concentration 20 µg/ml, 7 mm means no activity
[12] = Helicobacter pylori, NCTC11637, 72 h, H. pylori strain NCTC 11637 (metronidazole resistant), concentration 20 µg/ml, 7 mm means no activity

| SMILES | zone of inhibition at 50 µg/mL [1] [mm] | zone of inhibition at 50 µg/mL [2] [mm] | zone of inhibition at 50 µg/mL [3] [mm] | zone of inhibition at 50 µg/mL [4] [mm] | zone of inhibition at 50 µg/mL [5] [mm] | zone of inhibition at 20 µg/mL [6] [mm] | zone of inhibition at 20 µg/mL [7] [mm] | zone of inhibition at 20 µg/mL [8] [mm] | zone of inhibition at 20 µg/mL [9] [mm] | zone of inhibition at 20 µg/mL [10] [mm] | zone of inhibition at 20 µg/mL [11] [mm] | zone of inhibition at 20 µg/mL [12] [mm] | other results |
| --- | --- | --- | --- | --- | --- | --- | --- | --- | --- | --- | --- | --- | --- |
| Cc1ncc([N+](=O)[O-])n1CCOC(=O)[C@@H]1N2C(=O)[C@@H](NC(=O)COc3ccccc3)[C@H]2SC1(C)C [GBR 24156, 2-(2-Methyl-5-nitroimidazol-1-yl)ethyl (3S,5R,6R)-2,2-dimethyl-6-phenoxy acetamidopenam-3-carboxylate] | 60 | 22 | 48 | 51 | 41 | – | – | – | – | – | – | – | in vitro growth inhibition (in words) (Helicobacter pylori NCTC 11637, known for resistance against metronidazole): able to inhibit in vitro growth; zone of inhibition at 50 µg/mL (Helicobacter pylori, 72 h, H. pylori strain 88-A-13, concentration 50 µg/ml, 7 mm means no activity): 30 mm; zone of inhibition at 50 µg/mL (Helicobacter pylori, 72 h, H. pylori strain B104, concentration 50 µg/ml, 7 mm means no activity): 42 mm; zone of inhibition at 50 µg/mL (Helicobacter pylori, 72 h, H. pylori strain D29, concentration 50 µg/ml, 7 mm means no activity): 77 mm; zone of inhibition at 1.7 µg/mL (Helicobacter pylori, NCTC11637, 72 h, H. pylori strain NCTC 11637, concentration 1.7 µg/ml, 7 mm means no activity): 19 mm |
| Cc1ncc([N+](=O)[O-])n1CCOC(=O)COC(=O)[C@@H]1N2C(=O)[C@@H](NC(=O)COc3ccccc3)[C@H]2SC1(C)C [GBR 24157, [2-(2-Methyl-5-nitroimidazol-1-yl)ethoxy] carbonylmethyl (3S,5R,6R)-2,2-dimethyl-6-phenoxyacetamidopenam-3-carboxylate] | – | – | – | – | – | 10 | 11 | 14 | 28 | 24 | 13 | 7 | – |
| Cc1ncc([N+](=O)[O-])n1CCOC(=O)OCOC(=O)[C@@H]1N2C(=O)[C@@H](NC(=O)COc3ccccc3)[C@H]2SC1(C)C [GBR 24158, [2-(2-Methyl-5-nitroimidazol-1-yl)ethoxy]carbonyloxymethyl (3S,5R,6R)-2,2-dimethyl-6-phenoxyacetamidopenam-3-carboxylate] | – | – | – | – | – | 19 | 27 | 29 | 47 | 34 | 20 | 15 | – |
| Cc1ncc([N+](=O)[O-])n1CCOC(=O)C(C)(C)O/N=C(\C(=O)N[C@@H]1C(=O)N(S(=O)(=O)O)[C@H]1C)c1csc(N)n1 [GBR 24164] | – | – | – | – | – | – | – | – | – | – | – | – | zone of inhibition at 100 µg/mL (Helicobacter pylori, 72 h, H. pylori strain B104, concentration 100 µg/ml, 7 mm means no activity): 20 mm; zone of inhibition at 100 µg/mL (Helicobacter pylori, 72 h, H. pylori strain C85, concentration 100 µg/ml, 7 mm means no activity): 7 mm; zone of inhibition at 100 µg/mL (Helicobacter pylori, 72 h, H. pylori strain D9, concentration 100 µg/ml (20 µl on 7 mm disc), 7 mm means no activity): 16 mm; zone of inhibition at 100 µg/mL (Helicobacter pylori, 72 h, H. pylori strain D20, concentration 100 µg/ml, 7 mm means no activity): 7 mm; zone of inhibition at 100 µg/mL (Helicobacter pylori, 72 h, H. pylori strain D29, concentration 100 µg/ml, 7 mm means no activity): 12 mm; zone of inhibition at 100 µg/mL (Helicobacter pylori, NCTC11637, 72 h, H. pylori strain NCTC 11637 (metronidazole resistant), concentration 100 µg/ml, 7 mm means no activity): 7 mm |
| Cc1ncc([N+](=O)[O-])n1CCOC(=O)COC(=O)C(C)(C)O/N=C(\C(=O)N[C@@H]1C(=O)N(S(=O)(=O)O)[C@H]1C)c1csc(N)n1 [GBR 24165] | 29 | 10 | 36 | 12 | 33 | – | – | – | – | – | – | – | – |
| Cc1ncc([N+](=O)[O-])n1CCOC(=O)COC(=O)[C@@H]1N2C(=O)[C@@H](NC(=O)[C@H](N)c3ccc(O)cc3)[C@H]2SC1(C)C [GBR 24208, [2-(2-Methyl-5-nitroimidazol-1-yl)ethoxy]carbonylmethyl(3S,5R,6R)-6-[(R)-2-amino-2-(4-hydroxyphenyl)acetamido]-2,2-dimethylpenam-3-carboxylate] | – | – | – | – | – | – | – | – | – | – | – | – | zone of inhibition at 268 µg/mL (Helicobacter pylori, 72 h, H. pylori strain A85, concentration 268 µg/ml, 7 mm means no activity): 10 mm; zone of inhibition at 268 µg/mL (Helicobacter pylori, 72 h, H. pylori strain D9, concentration 268 µg/ml (20 µl on 7 mm disc), 7 mm means no activity): 15 mm; zone of inhibition at 268 µg/mL (Helicobacter pylori, NCTC11637, 72 h, H. pylori strain NCTC 11637 (metronidazole resistant), concentration 268 µg/ml, 7 mm means no activity): 10 mm |
